Assay results as given in PMC2861356 (Clinical cancer research : an official journal of the …, 2009).
Like-named read-outs stand apart in the source and are kept apart here.

Legend:
[1] = clinical; details: human, plasma, oral; for Cmax: Imatinib Cmax, mean ± SD; for Tmax: Imatinib tmax, median (range)
[2] = system: surgically incurable GIST; details: cited from earlier work
[3] = Nilotinib serum pharmacokinetics at steady-state
[4] = clinical; details: human, serum, oral
[5] = system: imatinib-resistant gastrointestinal stromal tumors (GIST); assay: Tumor response; assay type: in vivo, human
[6] = system: patients with advanced imatinib-resistant gastrointestinal stromal tumors (GIST)
[7] = system: GIST; details: GIST after imatinib; cited from earlier work
[8] = 400 mg, Cohort 3 (n=7), imatinib 400 mg bid alone, Day -1
[9] = 400 mg, Cohort 3 (n=7), imatinib 400 mg bid with nilotinib 400 mg qd, Day 8
[10] = Cohort 2 (n=6), imatinib 400 mg bid with nilotinib 200 mg qd, Day 8

Cc1ccc(NC(=O)c2ccc(CN3CCN(C)CC3)cc2)cc1Nc1nccc(-c2cccnc2)n1 [Imatinib]
Cmax ([1]; 400 mg, Cohort 2 (n=6), imatinib 400 mg bid alone, Day -1): 2770 ± 1140 ng/mL
Cmax [1, 8]: 4020 ± 2170 ng/mL
Cmax [1, 9]: 4200 ± 1120 ng/mL
Cmax ([1]; 400 mg, Cohort 4 (n=5), imatinib 400 mg bid alone, Day -1): 4170 ± 1760 ng/mL
Cmax ([1]; 400 mg, Cohort 4 (n=5), imatinib 400 mg bid with nilotinib 400 mg bid, Day 8): 5070 ± 2760 ng/mL
Tmax [1, 8]: 4.8 h
Tmax [1, 9]: 2.4 h
Cmax [1, 10]: 3370 ± 1120 ng/mL
Tmax [1, 10]: 2.9 h
Imatinib Cavg, mean ± SD (Cohort 2 (n=6), imatinib 400 mg bid alone, Day -1): 2381 ± 1181 ng/mL
Imatinib Cavg, mean ± SD [10]: 2768 ± 1039 ng/mL
Imatinib Cavg, mean ± SD (Cohort 3 (n=7), imatinib 400 mg bid alone, Day -1): 3594 ± 2195 ng/mL
Imatinib Cavg, mean ± SD (Cohort 3 (n=7), imatinib 400 mg bid with nilotinib 400 mg qd, Day 8): 3735 ± 1212 ng/mL
Imatinib Cavg, mean ± SD (Cohort 4 (n=5), imatinib 400 mg bid alone, Day -1): 3556 ± 1523 ng/mL
Imatinib Cavg, mean ± SD (Cohort 4 (n=5), imatinib 400 mg bid with nilotinib 400 mg bid, Day 8): 4285 ± 2325 ng/mL
Patients with primary resistance within the first 6 months of therapy ([2]; estimated): 5-14%
Median time of therapy until secondary resistance ([2]; most patients): 2 years
Median survival ([2]; surgically incurable GIST): ~5 years
Tumor control rates ([2]; surgically incurable GIST): > 80%

Cc1cn(-c2cc(NC(=O)c3ccc(C)c(Nc4nccc(-c5cccnc5)n4)c3)cc(C(F)(F)F)c2)cn1 [Nilotinib]
Slope of Cavg versus total nilotinib daily dose (power model) ([3]; combination cohorts): 0.946
Slope of Cmax versus total nilotinib daily dose (power model) ([3]; combination cohorts): 0.881
Nilotinib AUC0-t higher than in single-agent cohort ([3]; nilotinib 400 mg bid combination cohorts, second value): 18%
Nilotinib oral clearance, mean CL/F across the combination groups ([3]; nilotinib with imatinib, 4 combination cohorts): 19.1 to 25.6 L/h
AUC(0-t) [4]: 13600 ± 6620 ng·h/mL
Cmax ([4]; 400 mg bid): 1640 ± 828 ng/mL
Tmax ([4]; 400 mg bid): 2.8 h
Best overall response: Complete response ([5]; Nilotinib 400 mg bid n=18): 0 n (%)
Best overall response: Partial response ([5]; Nilotinib 400 mg bid n=18): 1 (6) n (%)
Best overall response: Progressive disease ([5]; Nilotinib 400 mg bid n=18): 2 (11) n (%)
Best overall response: Stable disease ([5]; Nilotinib 400 mg bid n=18): 13 (72) n (%)
Best overall response: Unknown (could not be classified) ([5]; Nilotinib 400 mg bid n=18): 1 (6) n (%)
Progression-free survival, Kaplan-Meier rate at 4 months ([5]; Nilotinib 400 mg bid n=18): 59%
Progression-free survival, Kaplan-Meier rate at 6 months ([5]; Nilotinib 400 mg bid n=18): 47%
Progression-free survival, median ([5]; Nilotinib 400 mg bid n=18): 168 days
Progression-free survival, range ([5]; Nilotinib 400 mg bid n=18): 1 to 393 days
Patients with stable disease ([5]; all cohorts): Thirty-eight
Discontinuation of study for disease progression ([5]; all cohorts, n=32): 60%
Progression-free survival, range ([5]; all patients): 1 to 393 days
Median progression-free survival ([5]; entire group, all patients): 134 days
Stable disease lasting >6 months ([5]; single-agent nilotinib group, 5 patients): 28%
Stable disease lasting >4 months ([5]; single-agent nilotinib group, 9 patients): 50%
Discontinuation of study for death ([6]; all cohorts, n=2): 4%
Abdominal pain, overall frequency of AE ([6]; human, in vivo): 36%
Discontinuation of study for AEs ([6]; human, in vivo): 6%
Fatigue, overall frequency of AE ([6]; human, in vivo): 38%
Grade 3 elevations of AST or ALT ([6]; human, in vivo): < 2%
Grade 3 or 4 laboratory abnormality: hyperbilirubinemia ([6]; human, in vivo): 8%
Grade 3 or 4 toxicities, patients overall ([6]; human, in vivo): 49%
Nausea, overall frequency of AE ([6]; human, in vivo): 36%
Post-baseline QTcF interval >480 msec ([6]; human, in vivo): 13%
QTcF >500 msec ([6]; human, in vivo): no QTcF >500 msec was reported
Rash, overall frequency of AE ([6]; human, in vivo): 40%
Severe AEs (grade 3 or 4): abdominal pain ([6]; human, in vivo): 13%
Dose deemed appropriate for Phase II studies ([6]; human, in vivo, 28 days): 400 mg bid
Dose-limiting toxicity: grade 3 hyperbilirubinemia, frequency ([6]; human, in vivo, 28 days): 6%
Thrombocytopenia episodes ([6]; in vivo): no episodes of thrombocytopenia

CCN(CC)CCNC(=O)c1c(C)[nH]c(/C=C2\C(=O)Nc3ccc(F)cc32)c1C [Sunitinib]
Duration of benefit of second-line therapy [7]: approximately 9 months
